Experiments:
Details in all cases: filed as activator, time 50.0 min
Nrf2 (Mus musculus) [1] = test: Activation of Nrf2 in mouse Hepa1c1c7 cells assessed as increase in NQO1 activity at 5 uM using menadione as substrate incubated for 20 mins followed by substrate addition and measured after 30 mins by spectrophotometry relative to control
Nrf2 (Mus musculus) [2] = test: Activation of Nrf2 in mouse Hepa1c1c7 cells assessed as increase in NQO1 activity at 10 uM using menadione as substrate incubated for 20 mins followed by substrate addition and measured after 30 mins by spectrophotometry relative to control
Nrf2 (Mus musculus) [3] = test: Activation of Nrf2 in mouse Hepa1c1c7 cells assessed as increase in NQO1 activity at 20 uM using menadione as substrate incubated for 20 mins followed by substrate addition and measured after 30 mins by spectrophotometry relative to control
[4] = molecular target: Nuclear factor erythroid 2-related factor 2 (Mus musculus) (UniProt Q60795); test: Activation of Nrf2 in mouse Hepa1c1c7 cells assessed as increase in NQO1 activity at 40 uM using menadione as substrate incubated for 20 mins followed by substrate addition and measured after 30 mins by spectrophotometry relative to control
Nrf2 (Mus musculus) [5] = test: Activation of Nrf2 in mouse Hepa1c1c7 cells assessed as increase in NQO1 activity at 2.5 uM using menadione as substrate incubated for 20 mins followed by substrate addition and measured after 30 mins by spectrophotometry relative to control
Nrf2 (Mus musculus) [6] = test: Activation of Nrf2 in mouse Hepa1c1c7 cells assessed as increase in NQO1 activity at 1.25 uM using menadione as substrate incubated for 20 mins followed by substrate addition and measured after 30 mins by spectrophotometry relative to control
Nrf2 (Mus musculus) [7] = test: Activation of Nrf2 in mouse Hepa1c1c7 cells assessed as increase in NQO1 activity at 0.313 uM using menadione as substrate incubated for 20 mins followed by substrate addition and measured after 30 mins by spectrophotometry relative to control
Nrf2 (Mus musculus) [8] = test: Activation of Nrf2 in mouse Hepa1c1c7 cells assessed as increase in NQO1 activity at 0.625 uM using menadione as substrate incubated for 20 mins followed by substrate addition and measured after 30 mins by spectrophotometry relative to control
[9] = molecular target: Nuclear factor erythroid 2-related factor 2 (Mus musculus) (UniProt Q60795); test: Activation of Nrf2 in mouse Hepa1c1c7 cells assessed as increase in NQO1 activity at 25 uM using menadione as substrate incubated for 20 mins followed by substrate addition and measured after 30 mins by spectrophotometry relative to control
[10] = molecular target: Nuclear factor erythroid 2-related factor 2 (Mus musculus) (UniProt Q60795); test: Activation of Nrf2 in mouse Hepa1c1c7 cells assessed as increase in NQO1 activity at 50 uM using menadione as substrate incubated for 20 mins followed by substrate addition and measured after 30 mins by spectrophotometry relative to control
Nrf2 (Mus musculus) [11] = test: Activation of Nrf2 in mouse Hepa1c1c7 cells assessed as increase in NQO1 activity at 0.4 uM using menadione as substrate incubated for 20 mins followed by substrate addition and measured after 30 mins by spectrophotometry relative to control
Nrf2 (Mus musculus) [12] = test: Activation of Nrf2 in mouse Hepa1c1c7 cells assessed as increase in NQO1 activity at 0.8 uM using menadione as substrate incubated for 20 mins followed by substrate addition and measured after 30 mins by spectrophotometry relative to control
Nrf2 (Mus musculus) [13] = test: Activation of Nrf2 in mouse Hepa1c1c7 cells assessed as increase in NQO1 activity at 1.6 uM using menadione as substrate incubated for 20 mins followed by substrate addition and measured after 30 mins by spectrophotometry relative to control
[14] = molecular target: Nuclear factor erythroid 2-related factor 2 (Mus musculus) (UniProt Q60795); test: Activation of Nrf2 in mouse Hepa1c1c7 cells assessed as increase in NQO1 activity at 6.25 uM using menadione as substrate incubated for 20 mins followed by substrate addition and measured after 30 mins by spectrophotometry relative to control
[15] = molecular target: Nuclear factor erythroid 2-related factor 2 (Mus musculus) (UniProt Q60795); test: Activation of Nrf2 in mouse Hepa1c1c7 cells assessed as increase in NQO1 activity at 12.5 uM using menadione as substrate incubated for 20 mins followed by substrate addition and measured after 30 mins by spectrophotometry relative to control
Nrf2 (Mus musculus) [16] = test: Activation of Nrf2 in mouse Hepa1c1c7 cells assessed as increase in NQO1 activity at 3.125 uM using menadione as substrate incubated for 20 mins followed by substrate addition and measured after 30 mins by spectrophotometry relative to control
Nrf2 (Mus musculus) [17] = test: Activation of Nrf2 in mouse Hepa1c1c7 cells assessed as increase in NQO1 activity using menadione as substrate incubated for 20 mins followed by substrate addition and measured after 30 mins by spectrophotometry

Sequence of Nuclear factor erythroid 2-related factor 2 (Mus musculus) (Q60795 whole entry, looked up): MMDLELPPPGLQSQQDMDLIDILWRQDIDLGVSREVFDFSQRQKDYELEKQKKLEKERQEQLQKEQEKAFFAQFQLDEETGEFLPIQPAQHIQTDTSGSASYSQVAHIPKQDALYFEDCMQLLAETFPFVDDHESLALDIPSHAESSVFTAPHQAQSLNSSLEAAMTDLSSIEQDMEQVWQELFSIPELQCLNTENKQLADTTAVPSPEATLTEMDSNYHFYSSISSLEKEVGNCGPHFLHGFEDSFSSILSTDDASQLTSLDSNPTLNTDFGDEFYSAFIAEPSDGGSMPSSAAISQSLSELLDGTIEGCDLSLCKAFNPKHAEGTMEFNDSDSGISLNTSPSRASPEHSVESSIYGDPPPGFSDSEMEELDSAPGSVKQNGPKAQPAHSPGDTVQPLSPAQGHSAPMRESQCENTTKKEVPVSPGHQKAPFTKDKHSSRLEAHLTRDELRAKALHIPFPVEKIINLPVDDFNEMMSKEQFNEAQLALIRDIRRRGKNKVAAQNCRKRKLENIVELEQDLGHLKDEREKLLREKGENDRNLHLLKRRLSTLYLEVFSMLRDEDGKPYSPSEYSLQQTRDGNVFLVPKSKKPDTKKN

Structure (SMILES)	T/C (Nrf2 (Mus musculus) [1])	T/C (Nrf2 (Mus musculus) [2])	T/C (Nrf2 (Mus musculus) [3])	T/C [4]	T/C (Nrf2 (Mus musculus) [5])	T/C (Nrf2 (Mus musculus) [6])	T/C (Nrf2 (Mus musculus) [7])	T/C (Nrf2 (Mus musculus) [8])	T/C [9]	T/C [10]	T/C (Nrf2 (Mus musculus) [11])	T/C (Nrf2 (Mus musculus) [12])	T/C (Nrf2 (Mus musculus) [13])	T/C [14]	T/C [15]	T/C (Nrf2 (Mus musculus) [16])	Activity (Nrf2 (Mus musculus) [17])	CD (Nrf2 (Mus musculus) [17]) [µM]
CCc1ccccc1NC(=O)CSc1nc2c(I)cc(I)cc2c(=O)n1-c1ccc(S(N)(=O)=O)cc1	1.01	1.01	1.01	1.05	0.97	0.99	0.99	0.97	–	–	–	–	–	–	–	–	–	–
NS(=O)(=O)c1ccc(-n2c(SCC(=O)Nc3ccc([N+](=O)[O-])cc3[N+](=O)[O-])nc3c(I)cc(I)cc3c2=O)cc1	1.08	1.2	1.36	1.68	1.04	1.03	1.01	1.04	–	–	–	–	–	–	–	–	–	–
NS(=O)(=O)c1ccc(-n2c(SCC(=O)Nc3ccccc3)nc3c(I)cc(I)cc3c2=O)cc1	–	–	–	–	–	–	–	–	1.26	1.47	1.03	1	1.03	1.11	1.18	1.06	–	–
Cc1cc([N+](=O)[O-])ccc1NC(=O)CSc1nc2c(I)cc(I)cc2c(=O)n1-c1ccc(S(N)(=O)=O)cc1	1.06	1.28	1.53	–	1	0.99	1.01	1.01	–	–	–	–	–	–	–	–	–	–
NS(=O)(=O)c1ccc(-n2c(S)nc3c(I)cc(I)cc3c2=O)cc1	–	–	–	–	–	–	–	–	1.05	–	1.01	1.04	1.06	1.02	1.06	1.01	–	–
COc1cc(NC(=O)CSc2nc3c(I)cc(I)cc3c(=O)n2-c2ccc(S(N)(=O)=O)cc2)cc(OC)c1	–	–	–	–	–	–	–	–	1.73	1.81	1	1.01	1.02	1.22	1.52	1.06	–	–
Cc1ccccc1NC(=O)CSc1nc2c(I)cc(I)cc2c(=O)n1-c1ccc(S(N)(=O)=O)cc1	–	–	–	–	–	–	–	–	1.31	1.43	1.04	1.04	1.04	1.13	1.27	1.06	–	–
Cc1cccc([N+](=O)[O-])c1NC(=O)CSc1nc2c(I)cc(I)cc2c(=O)n1-c1ccc(S(N)(=O)=O)cc1	–	–	–	–	–	–	–	–	1.34	1.94	0.95	0.93	0.89	0.91	1.05	0.83	Dose-dependent effect	50
CCOc1ccc(NC(=O)CSc2nc3c(I)cc(I)cc3c(=O)n2-c2ccc(S(N)(=O)=O)cc2)cc1	1	0.99	1.09	1.16	1.02	0.99	1.01	1.02	–	–	–	–	–	–	–	–	–	–
COc1ccc(NC(=O)CSc2nc3c(I)cc(I)cc3c(=O)n2-c2ccc(S(N)(=O)=O)cc2)cc1	–	–	–	–	–	–	–	–	1.18	1.29	1.01	1.02	1	0.99	1.08	0.98	–	–
CCc1cccc(NC(=O)CSc2nc3c(I)cc(I)cc3c(=O)n2-c2ccc(S(N)(=O)=O)cc2)c1	1.04	1.09	1.15	1.3	1.04	1.05	1.03	1.02	–	–	–	–	–	–	–	–	–	–
CCc1ccc(NC(=O)CSc2nc3c(I)cc(I)cc3c(=O)n2-c2ccc(S(N)(=O)=O)cc2)cc1	–	–	–	–	–	–	–	–	1.03	1.14	0.98	0.99	0.98	0.99	1.01	0.97	–	–
Cc1ccc(NC(=O)CSc2nc3c(I)cc(I)cc3c(=O)n2-c2ccc(S(N)(=O)=O)cc2)cc1	–	–	–	–	–	–	–	–	1.08	1.13	1.01	0.99	0.99	0.99	1	0.97	–	–
Cc1cccc(NC(=O)CSc2nc3c(I)cc(I)cc3c(=O)n2-c2ccc(S(N)(=O)=O)cc2)c1	–	–	–	–	–	–	–	–	1.27	1.48	1.05	1.01	1.04	1.06	1.14	1.05	–	–
